What was measured:
[1] = Relaxivity (r1) by variable flip angle technique at 9.4 T; assay type: physicochemical
Procedure: (§1) While the liposomal contrast agent has slow clearance, Multihance® clears rapidly, and timing the image acquisition is critical. We therefore opted to use the DCE-MRI technique to collect a series of images, from which the optimal time point could be selected. DCE-MRI experiments were performed on a horizontal bore 9.4 T Bruker Avance III, 20 cm bore Biospec Spectrometer (Karlsruhe, Germany) with a micro-imaging probe capable of generating gradients of (1000 mT/m). Prior to the in vivo study, the relaxivity of both agents was measured using the variable flip angle technique described in Appendix A. Similarly, the baseline relaxation rates, T1(O), for placenta and fetus were measured using the same pulse sequence as described in Appendix A.

pregnant Balb/c mice = assay: Blinded reader rating of placental visibility in DCE-MRI; assay type: in vivo, mouse
Procedure: The trans-placental permeability of liposomal gadolinium (Gd) nanoparticle contrast agents was evaluated in a pregnant mouse model. Pregnant Balb/c mice at 16.5 (±1) days of gestation were imaged using a 3D Spoiled Gradient Echo method at 9.4 T using two contrast agents: a clinically approved Gd chelate, Multihance® (gadobenate dimeglumine), and a novel experimental liposomal Gd agent. A Dynamic Contrast Enhancement (DCE) protocol was used to capture the dynamics of contrast entry and distribution in the placenta, and clearance from circulation. A blinded clinical radiologist evaluated both sets of images. A reference region model was used to measure the placental flow and physiological parameters; volume transfer constant (Ktrans), efflux rate constant (Kep). The Gd content of excised placentae and fetuses was measured, using inductively coupled plasma mass spectrometry (ICP-MS). […] Image interpretation and diagnostic quality was equivalent between the two contrast agents.
(§2) 25 female Balb/c mice (7-9 weeks old; average weight 26 grams before pregnancy) were used in this study. Animals were mated with same strain males. The day when a vaginal copulation plug was detected was designated as day 0.5. Pregnant mice were imaged at day 16.5±1. Mice were sacrificed (under the institutional euthanasia protocol) immediately after MRI data collection (except for two mice that received the liposomal Gd agent, and were maintained alive for 72 hours, allowing additional time for possible transport of Gd to the fetus, and then sacrificed). Mice were dissected and the placentae and fetuses removed and transferred individually to 2 ml polycarbonate vials for storage at −81° C. These placentae and fetuses were analyzed using ICP-MS for the direct measurement of Gd concentration.
Animals were anesthetized with 4% Isofluorane/air and transferred supine to the animal-imaging cradle. A 28-gauge catheter was placed in the tail vein. Once transferred to the imaging instrument, isofluorane (2%) was administered continuously via a nose cone. A pressure sensitive pillow was placed on the abdomen and taped in place to monitor respiration. The animal chamber of the imaging probe was maintained at around 30-33° C. The magnet room was maintained at 25-27° C. Heart rate was maintained at steady 50-60 beats-per-minute by adjusting the airflow and isofluorane concentration. MR imaging was performed with Multihance® in 14 mice. Liposomal Gd was used in 9 mice. Two mice were injected with saline as a control for comparison. Contrast agents were diluted to 20 mM and a dose of 0.08 mmol/kg (typically around 100 μL) were prepared for this study. The contrast agent was injected manually by the same operator (3 years of experience with small animals) and at the same rate in each mouse.
as §1
For the DCE-MRI study, baseline images without contrast enhancement were acquired, followed by a series of images acquired over time during and after the arrival of the contrast agent in the tissue of interest. A 3D-spoiled gradient recalled echo (SPGRE) pulse sequence with a fixed flip angle of 16 degrees was used over 175 measurements. Other parameters are described in Appendix A. The time for a single measurement was 9.25 seconds. […]

[2] = Placental and fetal contrast agent concentration and uptake from DCE-MRI data; assay type: in vivo, mouse
Excerpt: The image data was used to calculate absolute Gd concentrations using the methods in Appendix A. Contrast agent concentrations estimated from the MRI data are shown in Table 2-2 using Eqs. A4 and A5.
For the DCE-MRI study, baseline images without contrast enhancement were acquired, followed by a series of images acquired over time during and after the arrival of the contrast agent in the tissue of interest. A 3D-spoiled gradient recalled echo (SPGRE) pulse sequence with a fixed flip angle of 16 degrees was used over 175 measurements. Other parameters are described in Appendix A. The time for a single measurement was 9.25 seconds. Two minutes into the experiment, contrast was injected. Total scan time was 26 minutes and 52 seconds. The acquired signal was used to generate a time-intensity curve and the signal was converted pixel-by-pixel into concentration of the injected agent.
MRI data was transferred to an offline workstation and each placental and fetal compartment was segmented as a separate region of interest (ROI) using AMIRA V5.6 software (FEI Visualization Sciences Group, Hillsboro, Oreg.). The segmented regions were transferred to Matlab (Matlab 7.6.0, MathWorks, Natick, Mass., USA) to create a pixel-by-pixel T1(0) map and T1(t) map as described in Appendix A. Two placental zones were identified visually from the signal enhancement pattern: the labyrinth zone characterized by early flow enhancement and a peripheral region (maternal decidua) characterized by late flow enhancement that began after the central labyrinth enhancement peaked. The two zones together constitute the entire placenta.

[3] = Gadolinium assay by ICP-MS of placentae and fetuses; assay type: in vivo, mouse
Procedure: as §2
Wet tissue from placentae or pups was chopped with a scalpel into ˜3 mm pieces. A known mass of chopped tissue was then dissolved in 2-4 ml of concentrated nitric acid (14N) and heated at 100° C. till tissue completely dissolved. (Usually, about 30-45 minutes at room temperature and 3 minutes at 100° C. were sufficient). The acid solution was diluted with 10 ml of DI water, causing some precipitation of organic material. The material was centrifuged at 3000 g for 5-10 minutes, and the supernatant used for analysis. Serial dilutions over a 10^6 range were then made, and spiked with an internal standard of Bi 10 parts per billion (ppb) in 2% nitric acid. ICP-MS analysis was conducted on a Varian 810 ICP-MS system, using the manufacturer's recommended protocol for Gd assay. A spike-recovery study on blank tissue yielded linear response with >90% recovery over a range of 0-900 ppb and >96% response over a range of 0-50 ppb.

[4] = tested on: pregnant Sprague Dawley rats; assay: DCE-MRI visualization of the retroplacental space; assay type: in vivo, rat; conditions: 0.15 mmol Gd/kg, 20 minute post-contrast acquisition
Procedure: In the study with the conventional Gd contrast agent, dynamic contrast enhanced MRI (DCE-MRI) was performed using gadoterate meglumine (Gd-DOTA, Dotarem®) to evaluate visualization of the retroplacental space. DCE-MRI was performed using a T1w 2D gradient echo sequence (GRE) sequence with the following scan parameters: TE=3.5 ms, TR=15 ms, FA=25, slice thickness=0.8 or 1.6 mm, NEX=12; temporal resolution=47 s. Four non-contrast, baseline images were acquired followed by bolus intravenous administration of gadoterate meglumine (0.15 mmol Gd/kg). Post-contrast imaging was continued for upto 20 minutes after administration of gadoterate meglumine. In order to directly compare image quality between the two contrast agents, liposomal-Gd contrast agent (0.15 mmol Gd/kg) was administered a minimum of three hours later, allowing clearance of gadoterate meglumine. Post-liposomal-Gd contrast images were acquired using the same DCE-MRI protocol.
Pre-contrast and post-contrast scans were reviewed by a trained maternal-fetal radiologist (˜10 years of experience). T1 weighted GRE images and T2 weighted FSE images were included in the review. […] The visibility of target features in T1w and T2w images were scored by the radiologist on a 3-point scale: 0=not visible, 1=partly visible and 2=clearly visible. […]

[5] = placentae rated by blinded reader, 5-point scale, 9.4 T

Structure (SMILES) | relaxivity (r1) [1] [s/mM] | time of image intensity peak after injection (pregnant Balb/c mice; DCE-MRI) [s] | Number observed with Placenta Visibility 1 (pregnant Balb/c mice; [5]) | Number observed with Placenta Visibility 2 (pregnant Balb/c mice; [5]) | Number observed with Placenta Visibility 3 (pregnant Balb/c mice; [5]) | Number observed with Placenta Visibility 4 (pregnant Balb/c mice; [5]) | Number observed with Placenta Visibility 5 (pregnant Balb/c mice; [5]) | uptake of contrast agent in the fetal compartment ([2]; MRI, liposomal Gd even after 72 hr exposure) | Placental concentration ([2]; gadolinium peak from MRI data, mean, ROI around entire placenta, 0.08 mmol/kg) [µmol/L] | Fetal concentration ([2]; gadolinium peak from MRI data, mean, ROI around fetal sac, 0.08 mmol/kg) [µmol/L] | Gd concentration in placentae and fetuses versus detection limit ([3]; 45 minutes and 90 minutes post injection, detection limit 0.318 nmol/g tissue) | Placental and fetal Gd concentrations relative to each other ([3]; 45 minutes post-injection) | Placental and fetal Gd concentrations, factor of each other ([3]; 90 minutes post-injection) | transplacental permeation ([3]; MRI images and ICP-MS analyses of placental and fetal tissue) | visualization of the retroplacental space [4]
CNC[C@H](O)[C@@H](O)[C@H](O)[C@H](O)CO.CNC[C@H](O)[C@@H](O)[C@H](O)[C@H](O)CO.O=C([O-])CN(CCN(CC(=O)[O-])CC(=O)O)CCN(CC(=O)O)C(COCc1ccccc1)C(=O)[O-].[Gd+3] (stereo not drawn) [Multihance, gadobenate dimeglumine] | 3.99 ± 0.52 | 11 to 15 | 1 | 6 | 25 | 15 | 7 | uptake of contrast agent in the fetal compartment was observed | 0.60 ± 0.51 | 0.027 ± 0.01 | above the detection limit | within an order of magnitude of each other | ≤ 2 | avidly permeated the placental barrier | –
CNC[C@H](O)[C@@H](O)[C@H](O)[C@H](O)CO.O=C([O-])CN1CCN(CC(=O)[O-])CCN(CC(=O)O)CCN(CC(=O)[O-])CC1.[Gd+3] [gadoterate meglumine] | – | – | – | – | – | – | – | – | – | – | – | – | – | – | no consistent and reproducible visualization of the retroplacental space

Source: patent publication US11052162B2, “Liposomal gadolinium (GD) contrast agent “NMRX” for T1-MRI” (TEXAS CHILDREN'S HOSPITAL, priority 2016, dated 2021)
